Source: PubChem BioAssay AID1259375 (The Scripps Research Institute Molecular Screening Center, 2018)
pIC50: −log10 of the molar value. Activity calls are given as the source filed them. The rule behind the calls is not given here.

These compounds were tested against Microphthalmia-associated transcription factor (Homo sapiens) (UniProt O75030) (assay: MITF inhibitors by FRET titration, dose response, biochemical, high throughput (AID 1259375;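 note: FRET between CFP-tagged and YFP-tagged MITF protein partners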)). Settings: FRET biochemical assay, MITF inhibition.
Sequence of Microphthalmia-associated transcription factor (Homo sapiens) (O75030 whole entry, looked up): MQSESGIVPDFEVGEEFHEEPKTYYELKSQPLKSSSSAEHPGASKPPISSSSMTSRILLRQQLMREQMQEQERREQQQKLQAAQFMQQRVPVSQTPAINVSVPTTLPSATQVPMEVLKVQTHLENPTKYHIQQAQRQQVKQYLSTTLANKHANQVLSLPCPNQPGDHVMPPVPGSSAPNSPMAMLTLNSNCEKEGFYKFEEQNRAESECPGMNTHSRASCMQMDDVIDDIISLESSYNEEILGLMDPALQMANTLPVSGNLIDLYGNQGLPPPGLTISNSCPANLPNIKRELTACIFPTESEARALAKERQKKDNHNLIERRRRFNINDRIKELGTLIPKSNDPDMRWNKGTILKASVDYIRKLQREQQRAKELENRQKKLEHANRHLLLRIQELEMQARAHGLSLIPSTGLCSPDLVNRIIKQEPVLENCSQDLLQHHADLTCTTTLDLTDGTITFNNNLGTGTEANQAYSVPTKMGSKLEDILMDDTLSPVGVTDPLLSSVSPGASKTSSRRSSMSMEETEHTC

| IC50 | pIC50 | SMILES |
| --- | --- | --- |
| > 6.48 µM (inactive) | – | Cc1oc(C(=O)O)cc1CSCCSCc1cc(C(=O)O)oc1C |
| > 6.48 µM (inactive) | – | CCC(C)NCCOc1cccc(Br)c1 (stereo not drawn) |
| > 6.48 µM (inactive) | – | O=C1NC(=O)/C(=C\c2ccc(O)cc2O)S1 |
| > 6.48 µM (inactive) | – | C=C1c2cccc(O)c2C(O)=C2C(=O)[C@]3(O)C(O)=C(C(N)=O)C(=O)[C@@H](N(C)C)[C@@H]3[C@@H](O)[C@H]12 |
| > 6.48 µM (inactive) | – | Cn1cc(-c2nc(Nc3ccc(-n4cnc(N5CCOCC5)n4)cc3)ncc2Br)cn1 |
| > 6.56 µM (inactive) | – | Cc1ccc(S(=O)(=O)C(CNC(=O)c2ccco2)c2cccs2)cc1 (stereo not drawn) |
| > 6.48 µM (inactive) | – | CC1=NN(c2ccc(C(=O)O)c(N)c2)C(=O)C1 |
| > 6.64 µM (inactive) | – | Cc1ccc([N+](=O)[O-])cc1S(=O)(=O)Nc1ccc(Nc2ncccc2[N+](=O)[O-])cc1 |
| > 7.18 µM (inactive) | – | Cn1c(SCc2cc(=O)n3c(n2)sc2ccccc23)nnc1C(F)(F)F |
| > 6.59 µM (inactive) | – | CN(CCc1ccccn1)Cc1ccc(F)cc1 |
| > 6.48 µM (inactive) | – | O=C(O)COc1ccc(-n2cccc2)cc1 |
| > 6.42 µM (inactive) | – | COC(=O)c1c(NC(=O)c2ccc([N+](=O)[O-])o2)sc(Cc2ccc3c(c2)OCO3)c1C |
| > 5.79 µM (inactive) | – | CCc1ccc(CN2CCN(Cc3cc(OC)c(O)c(OC)c3)CC2)cc1 |
| – | 5.52 | O=C(O)CCN(CCC(=O)O)c1ccc(O)cc1 |
| > 6.48 µM (inactive) | – | Cc1noc(C2CN(C(=O)c3ccc(-n4cccc4)cc3)C2)n1 |
| > 6.48 µM (inactive) | – | CN(C)/C=C/C=C/C(=O)C1CCC/C(=C\C=C\N(C)C)C1=O (stereo not drawn) |
| > 5.54 µM (inactive) | – | Cc1cccc(CN2CCN(C3CCC(C)CC3)CC2)c1 (stereo not drawn) |
| > 6.48 µM (inactive) | – | C[C@@H](O)[C@@H]1NC(=O)[C@H]2CN(C(=O)NCc3ccccc3)CCN2C1=O |
| > 6.63 µM (inactive) | – | O=C(/C=C/c1ccc(-c2cccc(C(F)(F)F)c2)o1)c1ccco1 |
| > 6.01 µM (inactive) | – | OCCNc1cc(-c2cccs2)ncn1 |
| > 7.03 µM (inactive) | – | N#Cc1cc([N+](=O)[O-])ccc1NC(=O)COC(=O)c1cc(-c2ccco2)nc2ccccc12 |
| > 6.48 µM (inactive) | – | Cc1ccc(/C(C#N)=C\c2ccco2)cc1 |
| > 6.08 µM (inactive) | – | O=C1Nc2ccc(S(=O)(=O)NCc3ccccc3)cc2C1=O |

| IC50 | pIC50 | SMILES |
| --- | --- | --- |
| > 6.48 µM (inactive) | – | CCN(CC)CC(=O)Nc1ccc(OC)cc1 |
| > 6.48 µM (inactive) | – | Cc1n[nH]c(=O)nc1NNc1ccc(C(=O)O)cc1 |
| > 6.48 µM (inactive) | – | O=C1O[C@H](C(O)CO)C(O)=C1O (stereo partly drawn) |
| > 6.91 µM (inactive) | – | NC(=O)COC(=O)c1cc2c(s1)CCC2 |
| > 6.48 µM (inactive) | – | O=C(NC1CCCCC1)N1CCN2C(=O)[C@@H]3C[C@@H](O)CN3C(=O)[C@H]2C1 |
| > 6.48 µM (inactive) | – | N#CC(C#N)=Cc1cccn1-c1ccc(C(=O)O)cc1 |
| – | 5.78 | COc1cc(C)c2c(c1C=O)Oc1c(c(C)c(O)c3c1C(O)OC3=O)OC2=O (stereo not drawn) |
| > 6.48 µM (inactive) | – | O=C(O)CCCNC(=O)/C=C/c1ccco1 |
| > 6.48 µM (inactive) | – | O=C(/C=C/c1ccco1)NCCCCNC(=O)/C=C/c1ccco1 |
| > 7.53 µM (inactive) | – | O=C(c1ccc(=O)oc1)N1CCc2ccccc21 |
| > 6.48 µM (inactive) | – | CC(C)C[C@H]1NC(=O)[C@H]2CN(C(=O)NC3CCCCC3)CCN2C1=O |
| > 7.74 µM (inactive) | – | O=C1NC(=S)N/C1=C\c1ccc([N+](=O)[O-])o1 |
| > 6.48 µM (inactive) | – | N#Cc1c(-c2ccc3c(c2)OCO3)nc(N2CCCCC2)[nH]c1=O |
| > 6.48 µM (inactive) | – | Cc1ccc(C(=O)Nc2ccc([N+](=O)[O-])cn2)o1 |
| > 6.48 µM (inactive) | – | O=C(O)c1ccc(CS(=O)(=O)c2ccccc2)o1 |
| > 6.48 µM (inactive) | – | CCN(CC)c1ncnc2c1ncn2[C@@H]1O[C@H](COP(=O)(O)OP(=O)(O)C(Br)(Br)P(=O)(O)O)C(O)[C@@H]1O (stereo partly drawn) |
| > 7.76 µM (inactive) | – | O=C(Nc1ccc(N2CCOCC2)cc1)c1ccc2nc(-c3cccs3)sc2c1 |
| > 5.66 µM (inactive) | – | O=C(c1cccc(F)c1)N1CCN(Cc2ccncc2)CC1 |
| > 7.17 µM (inactive) | – | CC(O)C(=O)N/N=C/C=C/c1ccc([N+](=O)[O-])o1 (stereo not drawn) |
| > 6.48 µM (inactive) | – | O=C1N[C@@H](CC2CCCCC2)C(=O)N2CCN(C(=O)Nc3ccccc3)C[C@H]12 |
| > 6.48 µM (inactive) | – | O=C(Cn1ncn2cccc2c1=O)N1CCc2ccccc2C1 |
| > 6.48 µM (inactive) | – | COc1cc(CN2CCN(C3CCCC3)CC2)cc(OC)c1OC |
| > 6.48 µM (inactive) | – | O=C1N[C@@H](COCc2ccccc2)C(=O)N2CCN(C(=O)NC3CCCCC3)C[C@H]12 |

| IC50 | pIC50 | SMILES |
| --- | --- | --- |
| > 6.48 µM (inactive) | – | CCC(C)C(=O)NCc1nnc2n1CCN(C/C=C/c1ccco1)CC2 (stereo not drawn) |
| > 6.48 µM (inactive) | – | CN(Cc1ccco1)S(=O)(=O)c1ccc2[nH]cc(C(=O)O)c(=O)c2c1 |
| > 6.48 µM (inactive) | – | O=C(/C=C/c1ccco1)NCC(=O)N/N=C/c1ccc(C(=O)O)cc1 |
| > 6.48 µM (inactive) | – | CC(C)[C@H]1NC(=O)[C@H]2CN(C(=O)NC3CCCCC3)CCN2C1=O |
| > 6.48 µM (inactive) | – | CN(C)CCCNC(=O)c1cccc(CN(C(=O)c2nc3ccc(-c4cn[nH]c4)cc3s2)C2CC2)c1 |
| – | 5.75 | O=C(O)c1cc([N+](=O)[O-])cc2c1-c1c(cc([N+](=O)[O-])cc1[N+](=O)[O-])/C2=C/c1ccco1 |
| > 6.48 µM (inactive) | – | O=C(Nc1ccc(C(=O)Nc2ccc(C(=O)Nc3ccc(S(=O)(=O)O)c4cc(S(=O)(=O)O)cc(S(=O)(=O)O)c34)cc2)cc1)Nc1ccc(C(=O)Nc2ccc(C(=O)Nc3ccc(S(=O)(=O)O)c4cc(S(=O)(=O)O)cc(S(=O)(=O)O)c34)cc2)cc1 |
| > 5.15 µM (inactive) | – | Cc1ccc(N2C(=O)c3ccccc3NC2c2cccc([N+](=O)[O-])c2)cc1 (stereo not drawn) |
| > 6.31 µM (inactive) | – | CC(O)(CNCCN1CCOCC1)COc1ccc(Cl)cc1 (stereo not drawn) |
| > 6.77 µM (inactive) | – | O=C(COc1ccccc1C(=O)OC1CCCC1=O)Nc1cccc(C(F)(F)F)c1 (stereo not drawn) |
| > 6.48 µM (inactive) | – | O=C(Nc1ccc(Cl)cc1Cl)N1CCN2C(=O)[C@@H]3CSCN3C(=O)[C@H]2C1 |
| > 6.48 µM (inactive) | – | CCN1CCc2c(sc(NC(=S)NC(=O)/C=C/c3ccco3)c2C(N)=O)C1 |
| > 6.48 µM (inactive) | – | CC(C)[C@H]1NC(=O)[C@H]2CN(C(=O)NCc3ccccc3)CCN2C1=O |
| > 6.82 µM (inactive) | – | CC(C)N(C(=O)COC(=O)c1cc(-c2ccco2)nc2ccccc12)C(C)C |
| > 6.48 µM (inactive) | – | O=C(O)c1cccc(-n2cccc2/C=C\[N+](=O)[O-])c1 |
| > 6.48 µM (inactive) | – | c1ccc(-c2ccc(OCCCCn3cncn3)cc2)cc1 |
| > 6.48 µM (inactive) | – | O=C1N[C@@H](COCc2ccccc2)C(=O)N2CCN(C(=O)NCc3ccccc3)C[C@H]12 |
| > 6.48 µM (inactive) | – | O=c1cc(/C=C/c2ccc(O)cc2)nc2nn[nH]n12 |
| > 6.48 µM (inactive) | – | CN(C)CCS(=O)c1cc(-c2cn[nH]c2)ccc1NC(=O)[C@@H]1Cc2cc(F)ccc2CN1 (stereo partly drawn) |
| > 6.48 µM (inactive) | – | O=C1N[C@@H](Cc2ccccc2)C(=O)N2CCN(C(=O)NC3CCCCC3)C[C@H]12 |
| > 6.48 µM (inactive) | – | COc1cc(N2CCOCC2)ccc1Nc1cc(Nc2ccccc2-n2cccn2)c(C(F)(F)F)cn1 |
| > 5.58 µM (inactive) | – | N[C@@H](C(=O)N[C@@H]1C(=O)N2C(C(=O)O)=C(CSC3CNNN3)CS[C@H]12)c1ccc(O)cc1 (stereo partly drawn) (tested in a mixture with another compound) |
| > 6.48 µM (inactive) | – | O=C(NCC(O)C(=O)N1CCOCC1)c1cccc(Nc2ccc3[nH]ncc3c2)n1 (stereo not drawn) |

| IC50 | pIC50 | SMILES |
| --- | --- | --- |
| > 6.48 µM (inactive) | – | COc1cccc(COC(=O)Nc2ccc(-c3cn[nH]c3)cc2N(C)CCN(C)C)c1 |
| > 6.48 µM (inactive) | – | O=C(NCc1ccccc1)N1CCN2C(=O)[C@@H]3CCCN3C(=O)[C@H]2C1 |
| > 6.48 µM (inactive) | – | Cc1sc2nc(C)n3c(=O)n(CC(=O)NCc4ccco4)nc3c2c1C |
| > 6.64 µM (inactive) | – | O=C(OC1CCCC1=O)c1ccc(S(=O)(=O)N2CCCCC2)cc1 (stereo not drawn) |
| > 6.48 µM (inactive) | – | CC(C)[C@@H]1NC(=O)[C@H]2CN(C(=O)NCc3ccccc3)CCN2C1=O |
| > 6.48 µM (inactive) | – | Cc1ccc(N2C(=O)C3C(C2=O)C2(CO)C=CC3(C)O2)cc1[N+](=O)[O-] (stereo not drawn) |
| > 6.48 µM (inactive) | – | CC(=O)NC1=NC(=O)/C(=C\c2ccc(Br)o2)S1 |
| > 6.48 µM (inactive) | – | O=C(O)C1CC=CCC1C(=O)Nc1nncs1 (stereo not drawn) |
| > 6.48 µM (inactive) | – | O=C(O)c1cc(-n2cccc2)ccc1Cl |
| > 6.48 µM (inactive) | – | Cc1cc(C)nc(NS(=O)(=O)c2ccc(N3C(=O)C=CC3=O)cc2)n1 |
| > 6.48 µM (inactive) | – | Cc1cc(NC(=O)C2CCN(C(=O)c3ccc(-n4cccc4)cc3)CC2)no1 |
| > 6.48 µM (inactive) | – | Cc1ccc(COc2ccc(/C=N/N=C3\NC(=O)C(CC(=O)O)S3)cc2)cc1 (stereo not drawn) |
| > 9.75 µM (inactive) | – | CC(=C/C(=O)O)/C=C/c1ccoc1 |
| > 5.62 µM (inactive) | – | COc1cc(C(=O)N2CCN(Cc3ccccc3C)CC2)cc(OC)c1OC |
| > 6.48 µM (inactive) | – | O=C(O)c1ccccc1-c1ccc(/C=C/[N+](=O)[O-])o1 |
| > 6.48 µM (inactive) | – | O=C(c1ccncc1)N1C2C=CC(C2)C1(C(F)(F)F)C(F)(F)F (stereo not drawn) |
| > 5.9 µM (inactive) | – | Nc1ccc(NCCO)c(N)c1 |
| > 6.18 µM (inactive) | – | NC(=O)c1ccc2nc(-c3cccs3)sc2c1 |
| inactive | – | O=C1S/C(=C\c2ccco2)C(=O)N1c1ccccc1Cl |
| > 6.48 µM (inactive) | – | COc1ccc(C[C@@H]2NC(=O)[C@H]3CN(C(=O)NC4CCCCC4)CCN3C2=O)cc1 |
| > 5.86 µM (inactive) | – | Clc1ccc(CN2CCN(Cc3c[nH]c4ccccc34)CC2)cc1 |

| SMILES | IC50 | pIC50 |
| --- | --- | --- |
| O=P(O)(O)C(Cl)(Cl)P(=O)(O)O | > 6.48 µM (inactive) | – |
| CN(C)[C@@H]1C(=O)C(C(N)=O)=C(O)[C@@]2(O)C(=O)C3=C(O)c4c(O)cccc4[C@@](C)(O)[C@H]3[C@H](O)[C@@H]12 | – | 5.39 |
| CCc1ccc(NC(=O)CCc2nc(C3=CCN(C)CC3)no2)cc1 | > 6.48 µM (inactive) | – |
